Patent US10091997B2, “Composition for inhibition of insect host sensing” (Vanderbilt University, priority 2010, dated 2018)

Tests used:
An. gambiae larvae = test: larval behavioral (movement) bioassay, Ethovision; type: in vivo, Anopheles gambiae
Method: FIG. 9. VUAA1's larval activity threshold relative to DEET is 5 orders of magnitude lower and AgORco dependent. Larval activity in An. gambiae over 5 minutes monitored in 6-well culture plates using Ethovision (Noldus) software.
In order to address whether VUAA1 as a non-volatile could also evoke behavioral responses from An. gambiae, the inventors tested behavioral responses to VUAA1 on individual larval stage mosquitoes by adaptation of an olfactory based bioassay recently developed at Vanderbilt (described in Liu et al., 2010). These methods are non-invasive, and easily executed using a fully automated setup with an Ethovision® camera/software system (Noldus Information Technology to quantify the overall movement of mosquito larvae in response to uniform concentrations of chemicals. In these assays, increased overall movement can be interpreted as an aversive response (akin to agitation) that are consistent with those evoked by commercially available insect repellents such as DEET.

HvOR2 = test: whole-cell patch clamp, HEK cells transiently transfected with HvOR2; type: cell-based, Heliothis virescens; details: HEK cells expressing HvOR2, −60 mV
Source text: For transient transfections, ORs were cloned into pCI (Promega) and transfected into Flp-In™ T-REx™293 cell lines (Invitrogen) with Fu GENE6 (Roche). For the creation of stable cell lines, a cell culture expression vector capable of expressing AgORco in conjunction with a conventional OR, pcDNA5/FRT/TO (Invitrogen) was modified to create two individual expression cassettes each under the control of a separate CMV/TetO2 promoter and a BGH poly-adenylation signal. Cells (as above) were transfected with the modified pcDNA5 plasmid along with POG44 (a Flp recombinase expression plasmid) to facilitate site-specific recombination. Stable cell lines were selected using Hygromycin B (Invitrogen). Cells were maintained in DMEM (Invitrogen) supplemented with 10% Tetracycline-free FBS (HyClone) and 15 μg/ml Blasticidin. […] Baseline readings were taken for 20 s before automated addition of compound previously diluted in DMSO and assay buffer. […]
Currents from OR-expressing HEK293 cells were amplified with an Axopatch 200b Amplifier (Axon Instruments) and digitized through a Digidata 1322A (Axon Instruments). Electrophysiological data was recorded and analyzed using pCLAMP 10 (Axon Instruments). […]

AgORco [1] = target: T1, AgORco (Anopheles gambiae, UniProt Q7QCC7); test: single-channel recording, outside-out patches from AgORco-expressing HEK293 cells; type: cell-based
T1 construct: expressed in transfected cells
T1 sequence (Q7QCC7 1-478): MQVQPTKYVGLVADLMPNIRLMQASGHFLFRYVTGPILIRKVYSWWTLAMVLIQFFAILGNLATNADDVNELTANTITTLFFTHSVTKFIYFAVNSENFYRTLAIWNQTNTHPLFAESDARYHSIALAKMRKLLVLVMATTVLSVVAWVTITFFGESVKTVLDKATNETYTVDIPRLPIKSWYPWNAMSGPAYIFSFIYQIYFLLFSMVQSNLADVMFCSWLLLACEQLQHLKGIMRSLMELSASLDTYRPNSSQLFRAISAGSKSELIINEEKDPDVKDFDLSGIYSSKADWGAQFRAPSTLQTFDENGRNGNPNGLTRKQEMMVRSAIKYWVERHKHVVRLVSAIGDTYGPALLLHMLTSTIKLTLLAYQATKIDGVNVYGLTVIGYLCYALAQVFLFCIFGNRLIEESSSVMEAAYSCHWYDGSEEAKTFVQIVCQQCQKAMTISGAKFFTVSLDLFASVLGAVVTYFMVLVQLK
Method: (§1) Currents from OR-expressing HEK293 cells were amplified with an Axopatch 200b Amplifier (Axon Instruments) and digitized through a Digidata 1322A (Axon Instruments). Electrophysiological data was recorded and analyzed using pCLAMP 10 (Axon Instruments). Electrodes were fabricated from quartz tubing (Sutter Instruments) and pulled to 4-6 MΩ for whole cell recording. Electrodes were filled with internal solution (120 mM KCl, 30 mM D-glucose, 10 mM HEPES, 2 mM MgCl2, 1.1 mM EGTA, and 0.1 CaCl2 (pH 7.35, 280 mOsm). External (bath) solution contained 130 mM NaCl, 34 mM D-glucose, 10 mM HEPES, 1.5 mM CaCl2, 1.3 mM KH2PO4, and 0.5 MgSO4 (pH 7.35, 300 mOsm). Compounds were diluted in external solution and locally perfused to the recording cell using Perfusion Pencil (Automate Scientific) and controlled by a ValveLink 8.2 controller (Automate Scientific). Whole cell recordings were sampled at 10 kHz and filtered at 5 kHz. Outside-out patches were obtained using 10-15MΩ electrodes pulled from standard glass capillaries (World Precision Instruments) and fire-polished with an MF-830 micro forge (Narishige). Single channel recordings were sampled at 20 kHz. Recordings were reduced to 1 kHz and low-pass filtered at 500 Hz for display and analysis using QuB (SUNY at Buffalo).
In the next set of studies, outside-out membrane patches were excised from AgORco-expressing cells to examine single-channel currents evoked by VUAA1 (FIG. 5A). Here, spontaneous channel opening was observed before VUAA1 stimulation, but with very low probability (Po=0.02) (FIG. 5B). During a 5 s application of VUAA1 channel opening probability increased to Po=0.38 (FIG. 5C). Subsequent to agonist washout, channel opening probability decreased to 0.00 (FIG. 5D). The average unitary current of AgORco was 1.3±0.3 pA (mean±st. dev.) (FIG. 5C, inset) which is consistent with earlier single-channel studies of insect ORs (Sato et al., 2008).

AgORco [2] = target: T1, AgORco; test: whole-cell patch clamp, HEK293 cells stably expressing AgORco alone; type: cell-based
Method: as §1
To test the hypothesis that VUAA1 directly agonized AgORco, whole-cell patch clamp responses were examined in AgORco+AgOR10 expressing cells as well HEK293 cells stably expressing AgORco alone. […] The VUAA1-dependent currents in AgORco+AgOR10 cells resembled those resulting from application of benzaldehyde, an orthosteric agonist of AgOR10 (FIG. 3C) (Wang, 2010; Carey, 2010). AgORco+AgOR10 cells were more sensitive to VUAA1 than AgORco cells, producing inward currents at −5.0 log M, a concentration at which AgORco had no response. […] To investigate the specificity of VUAA1 agonism, the inventors transiently transfected HEK cells with the AgORco orthologs of Drosophila melanogaster and Heliothis virescens, DmOR83b and HvOR2 respectively.

CCc1ccc(NC(=O)CSc2nnc(-c3cccnc3)n2CC)cc1 [VUAA1]
larval behavioral responses (overall movement) (An. gambiae larvae; An. gambiae larvae, 5 minutes): robust responses
larval response after AgORco silencing (An. gambiae larvae; larvae treated with AgOrco siRNAs): no longer respond
larval response after mock or non-specific siRNA control injection (An. gambiae larvae; mock or non-specific siRNA control injection): retain their high sensitivity
threshold of larval responses lower than DEET (An. gambiae larvae; relative to DEET): 5 orders of magnitude
whole-cell currents (HvOR2): robust inward currents
channel opening probability (Po) during application (AgORco [1]; 5 s application of −4.0 log M, outside-out patch held at −60 mV, Po=0.02 before stimulation): 0.38
average unitary current of AgORco (AgORco [1]; during VUAA1 application, mean±st. dev.): 1.3±0.3 pA
channel opening probability after agonist washout (AgORco [1]; outside-out patch, after washout): 0.00
whole-cell currents (AgORco [2]; AgORco alone cells, clamped at −60 mV): concentration-dependent inward currents
whole-cell response at −5.0 log M (AgORco [2]; AgORco alone cells, −5.0 log M): no response
reversal potential (AgORco [2]; AgORco alone, mean±s.e.m.): +0.4±1.1 mV
